Results published in US9108983B2, “Pyrrole compounds, a process for their preparation and pharmaceutical compositions containing them” (LES LABORATOIRES SERVIER, priority 2013, dated 2015).
Structures can show the parent of a compound that is named as a salt. Where two headings read alike, the source gives them in different places.

Columns and labels:
Bcl-2 protein = Bcl-2 protein (histag-Bcl-2, UniProtKB P10415) (Homo sapiens (Human), UniProt P10415); assay: Inhibition of Bcl-2 by the fluorescence polarisation technique; assay type: binding; conditions: incubation for 2 hours, read-out: IC50 (nM) Bcl-2 FP
Description: The fluorescence polarisation tests were carried out on microplates (384 wells). The Bcl-2 protein, labelled (histag-Bcl-2 such that Bcl-2 corresponds to the UniProtKB® primary accession number: P10415), at a final concentration of 2.50×10^−8 M, is mixed with a fluorescent peptide (Fluorescein-[…]), at a final concentration of 1.00×10^−8 M in a buffer solution (Hepes 10 mM, NaCl 150 mM, Tween20 0.05%, pH 7.4), in the presence or absence of increasing concentrations of test compounds. After incubation for 2 hours, the fluorescence polarisation is measured.

[1] = system: RS4;11 leukaemia tumour line; assay: In vitro cytotoxicity (Microculture Tetrazolium Assay); assay type: cell-based; conditions: RS4;11 cells, exposed for 48 hours, cell viability, read-out: IC50 (nM) MTT RS4;11
Description: The cytotoxicity studies were carried out on the RS4;11 leukaemia tumour line.
The cells are distributed onto microplates and exposed to the test compounds for 48 hours.
The cell viability is then quantified by a colorimetric assay, the Microculture Tetrazolium Assay (Cancer Res., 1987, 47, 939-942).

Chain of Bcl-2 protein (P10415 whole entry): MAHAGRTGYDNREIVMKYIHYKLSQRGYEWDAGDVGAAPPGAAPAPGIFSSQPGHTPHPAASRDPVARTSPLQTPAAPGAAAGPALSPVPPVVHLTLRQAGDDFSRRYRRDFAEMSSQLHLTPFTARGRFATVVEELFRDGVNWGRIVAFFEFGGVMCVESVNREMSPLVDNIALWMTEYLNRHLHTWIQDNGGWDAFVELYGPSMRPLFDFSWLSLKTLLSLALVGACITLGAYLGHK

SMILES | IC50 (Bcl-2 protein) [nM] | IC50 ([1]; Homo sapiens, RS4-11, 48 h) [nM] | IC50 [1] [nM]
Cl.[2H]C([2H])([2H])n1cc(N(C(=O)c2cc(-c3cc(Cl)ccc3C(=O)N3Cc4ccccc4C[C@H]3CN3CCOCC3)n(C)c2C)c2ccc(O)cc2)cn1 [Example 416, 5-(5-Chloro-2-{[(3S)-3-(morpholin-4-ylmethyl)-3,4-dihydroisoquinolin-2(1H)-yl]carbonyl}phenyl)-N-(4-hydroxyphenyl)-1,2-dimethyl-N-[1-(trideuteriomethyl)-1H-pyrazol-4-yl]-1H-pyrrole-3-carboxamide hydrochloride] | 2.9 | 42.5 | 
Cc1c(C(=O)N(c2ccc(O)cc2)c2cc(C#N)ccn2)cc(-c2cc(Cl)ccc2C(=O)N2Cc3ccccc3C[C@H]2CN2CCOCC2)n1C [Example 110, 5-(5-Chloro-2-{[(3S)-3-(morpholin-4-ylmethyl)-3,4-dihydroisoquinolin-2(1H)-yl]carbonyl}phenyl)-N-(4-cyanopyridin-2-yl)-N-(4-hydroxyphenyl)-1,2-dimethyl-1H-pyrrole-3-carboxamide hydrochloride] | 8.5 | 39.5 | 
Cc1c(C(=O)N(c2ccc(O)cc2)c2ccnc(C#N)n2)cc(-c2cc(Cl)ccc2C(=O)N2Cc3ccccc3C[C@H]2CN2CCOCC2)n1C [Example 404, 5-(5-Chloro-2-{[(3S)-3-(morpholin-4-ylmethyl)-3,4-dihydroisoquinolin-2(1H)-yl]carbonyl}phenyl)-N-(2-cyanopyrimidin-4-yl)-N-(4-hydroxyphenyl)-1,2-dimethyl-1H-pyrrole-3-carboxamide hydrochloride] | 24.4 | 85.5 | 
Cc1c(C(=O)N(c2ccc(O)cc2)c2cnn(C)c2)cc(-c2ccc(F)cc2C(=O)N2Cc3ccccc3C[C@H]2CN2CCOCC2)n1C [Example 447, 5-(4-Fluoro-2-{[(3S)-3-(morpholin-4-ylmethyl)-3,4-dihydroisoquinolin-2(1H)-yl]carbonyl}phenyl)-N-(4-hydroxyphenyl)-1,2-dimethyl-N-(1-methyl-1H-pyrazol-4-yl)-1H-pyrrole-3-carboxamide hydrochloride] | 20 | > 600 | 
CN1CCN(C[C@@H]2Cc3ccccc3CN2C(=O)c2ccc(Cl)cc2-c2cc(C(=O)N(c3ccc(O)cc3)c3ccc4c(ccn4C)c3)cn2C)CC1 [Example 5, 5-(5-Chloro-2-{[(3S)-3-[(4-methylpiperazin-1-yl)methyl]-3,4-dihydroisoquinolin-2(1H)-yl]carbonyl}phenyl)-N-(4-hydroxyphenyl)-1-methyl-N-(1-methyl-1H-indol-5-yl)-1H-pyrrole-3-carboxamide hydrochloride] | 21.2 | 44.8 | 
Cc1c(C(=O)N(c2ccc(O)cc2)c2cnc3c(cnn3C)c2)cc(-c2cc(F)ccc2C(=O)N2Cc3ccccc3C[C@H]2CN2CCOCC2)n1C [Example 451, 5-(5-Fluoro-2-{[(3S)-3-(morpholin-4-ylmethyl)-3,4-dihydroisoquinolin-2(1H)-yl]carbonyl}phenyl)-N-(4-hydroxyphenyl)-1,2-dimethyl-N-(1-methyl-1H-pyrazolo[3,4-b]pyridin-5-yl)-1H-pyrrole-3-carboxamide hydrochloride] | 2.9 | 102 | 
Cc1c(C(=O)N(c2ccccc2)c2ccc(O)cc2)cc(-c2cc3c(cc2C(=O)N2Cc4ccccc4C[C@H]2C)OCO3)n1CCN(C)C [Example 98, 1-[2-(Dimethylamino)ethyl]-N-(4-hydroxyphenyl)-2-methyl-5-(6-{[(3R)-3-methyl-3,4-dihydroisoquinolin-2(1H)-yl]carbonyl}-1,3-benzodioxol-5-yl)-N-phenyl-1H-pyrrole-3-carboxamide hydrochloride] | 7.6 | 68.3 | 
Cc1c(C(=O)N(c2ccc(O)cc2)c2cnn(C)c2)cc(-c2cc3c(cc2C(=O)N2Cc4ccccc4C[C@H]2C)OCO3)n1CCN(C)C [Example 27, 1-[2-(Dimethylamino)ethyl]-N-(4-hydroxyphenyl)-2-methyl-5-(6-{[(3R)-3-methyl-3,4-dihydroisoquinolin-2(1H)-yl]carbonyl}-1,3-benzodioxol-5-yl)-N-(1-methyl-1H-pyrazol-4-yl)-1H-pyrrole-3-carboxamide hydrochloride] | 5.2 | 93.4 | 
Cc1c(C(=O)N(c2ccc(O)cc2)c2cnn(C3CCOC3)c2)cc(-c2cc(F)ccc2C(=O)N2Cc3ccccc3C[C@H]2CN2CCOCC2)n1C (single isomer, unassigned) [Example 402, 5-(5-Fluoro-2-{[(3S)-3-(morpholin-4-ylmethyl)-3,4-dihydroisoquinolin-2(1H)-yl]carbonyl}phenyl)-N-(4-hydroxyphenyl)-1,2-dimethyl-N-{1-[(3S or R)-tetrahydrofuran-3-yl]-1H-pyrazol-4-yl}-1H-pyrrole-3-carboxamide hydrochloride] | 26.1 | 241 | 
Cc1c(C(=O)N(c2ccccc2)c2ccc(O)cc2)cc(-c2cc(Cl)ccc2C(=O)N2Cc3ccccc3C[C@H]2CCCN2CCOCC2)n1C [Example 392, 5-(5-Chloro-2-{[(3R)-3-[3-(morpholin-4-yl)propyl]-3,4-dihydroisoquinolin-2(1H)-yl]carbonyl}phenyl)-N-(4-hydroxyphenyl)-1,2-dimethyl-N-phenyl-1H-pyrrole-3-carboxamide hydrochloride] | 3.8 | 11.4 | 
Cc1c(C(=O)N(c2ccc(O)c(F)c2)c2cnn(C)c2)cc(-c2cc3c(cc2C(=O)N2Cc4ccccc4C[C@H]2CN2CCOCC2)OCO3)n1C [Example 396, N-(3-Fluoro-4-hydroxyphenyl)-1,2-dimethyl-N-(1-methyl-1H-pyrazol-4-yl)-5-(6-{[(3S)-3-(morpholin-4-ylmethyl)-3,4-dihydroisoquinolin-2(1H)-yl]carbonyl}-1,3-benzodioxol-5-yl)-1H-pyrrole-3-carboxamide hydrochloride] | 15.7 | 116 | 
Cn1cc(N(C(=O)c2cc(-c3cc4c(cc3C(=O)N3Cc5ccccc5C[C@H]3CN3CCOCC3)OCO4)n(C)c2C(F)(F)F)c2ccc(O)cc2)cn1 [Example 75, N-(4-Hydroxyphenyl)-1-methyl-N-(1-methyl-4H-pyrazol-4-yl)-5-(6-{[(3S)-3-(morpholin-4-ylmethyl)-3,4-dihydroisoquinolin-2(1TH-yl]carbonyl}-1,3-benzodioxol-5-yl)-2-(trifluoromethyl)-1H-pyrrole-3-carboxamide hydrochloride] | 52.9 |  | 367
Cc1nn(C)cc1N(C(=O)c1cc(-c2cc(F)ccc2C(=O)N2Cc3ccccc3C[C@H]2CN2CCOCC2)n(C)c1C)c1ccc(O)cc1 [Example 452, N-(1,3-Dimethyl-1H-pyrazol-4-yl)-5-(5-fluoro-2-{[(3S)-3-(morpholin-4-ylmethyl)-3,4-dihydroisoquinolin-2(1H)-yl]carbonyl}phenyl)-N-(4-hydroxyphenyl)-1,2-dimethyl-1H-pyrrole-3-carboxamide hydrochloride] | 8.3 | 112 | 
COc1ccc(C(=O)N2Cc3ccccc3C[C@H]2CN2CCOCC2)c(-c2cc(C(=O)N(c3ccccc3)c3ccc(O)cc3)c(C)n2C)c1 [Example 19, N-(4-Hydroxyphenyl)-5-(5-methoxy-2-{[(3S)-3-(morpholin-4-ylmethyl)-3,4-dihydroisoquinolin-2(1H)-yl]carbonyl}phenyl)-1,2-dimethyl-N-phenyl-. H-pyrrole-3-carboxamide hydrochloride] | 6 |  | 65.5
COCCc1c(C(=O)N(c2ccc(O)cc2)c2cnc3c(c2)CCN3C)cc(-c2cc3c(cc2C(=O)N2Cc4ccccc4C[C@H]2CN2CCOCC2)OCO3)n1C [Example 358, N-(4-Hydroxyphenyl)-2-(2-methoxyethyl)-1-methyl-N-(1-methyl-2,3-dihydro-1H-pyrrolo[2,3-b]pyridin-5-yl)-5-(6-{[(3S)-3-(morpholin-4-ylmethyl)-3,4-dihydroisoquinolin-2(1H)-yl]carbonyl}-1,3-benzodioxol-5-yl)-1H-pyrrole-3-carboxamide hydrochloride] | 14.8 | 165 | 
Cc1c(N(C(=O)c2cc(-c3cc(Cl)ccc3C(=O)N3Cc4ccccc4C[C@H]3CCCN3CCOCC3)n(C)c2C)c2ccccc2)cc(C#N)n1C [Example 461, 5-(5-Chloro-2-{[(3R)-3-[3-(morpholin-4-yl)propyl]-3,4-dihydroisoquinolin-2(1H)-yl]carbonyl}phenyl)-N-(5-cyano-1,2-dimethyl-1H-pyrrol-3-yl)-1,2-dimethyl-N-phenyl-1H-pyrrole-3-carboxamide hydrochloride] | 3.1 | 18.6 | 
Cc1c(C(=O)N(c2ccc(O)cc2)c2cccc(C#N)c2)cc(-c2cc(Cl)ccc2C(=O)N2Cc3ccccc3C[C@H]2CN2CCOCC2)n1C [Example 398, 5-(5-Chloro-2-{[(3S)-3-(morpholin-4-ylmethyl)-3,4-dihydroisoquinolin-2(1H)-yl]carbonyl}phenyl)-N-(3-cyanophenyl)-N-(4-hydroxyphenyl)-1,2-dimethyl-1H-pyrrole-3-carboxamide hydrochloride] | 3.9 | 13.4 | 
Cc1c(C(=O)N(c2ccc(O)cc2)c2cnc3c(ccn3C)c2)cc(-c2cc(Cl)ccc2C(=O)N2Cc3ccccc3C[C@H]2C)n1C [Example 63, 5-(5-Chloro-2-{[(3R)-3-methyl-3,4-dihydroisoquinolin-2(1H)-yl]-carbonyl}phenyl)-N-(4-hydroxyphenyl)-1,2-dimethyl-N-(1-methyl-1H-pyrrolo[2,3-b]-pyridin-5-yl)-1H-pyrrole-3-carboxamide] | 5.1 | 11.2 | 
